Laboratory results as given in article PMC3578785, “Improved BM212 MmpL3 Inhibitor Analogue Shows Efficacy in Acute Murine Model of Tuberculosis Infection” (PLoS ONE, 2013).

Legend:
[1] = test system: M. tuberculosis H37Rv and mmpL3 mutants DR1-DR9; format: cell-based
[2] = test system: M. bovis BCG and mmpL3 mutants M1, M8; format: cell-based

Row | Structure (SMILES) | MIC for M. tuberculosis isolates resistant to compound 8 [1] [µM] | MIC for M. bovis BCG mutants resistant to compound 8 [2] [µM] | MIC for M. tuberculosis mutants with amino acid change V681I [1] [µM]
1 | CCc1ccc(-c2cc(CN3CCOCC3)c(C)n2-c2ccc(F)cc2)cc1 [Compound 8, 2-Methyl-3-[(morpholin-4-yl)-methyl]-5-[4-(ethyl)phenyl]-1-[4-(fluoro)phenyl]-1H-pyrrole] | 0.66 | 0.63 | 
2 | Cc1ccc(-c2cc(CN3CCOCC3)c(C)n2-c2ccc(F)cc2)cc1 [Compound 5, 2-Methyl-3-[(morpholin-4-yl)-methyl]-5-[4-(methyl)phenyl]-1-[4-(fluoro)phenyl]-1H-pyrrole] |  |  | 5.4
